From patent US20060211673A1, “Modulation of neurodegenerative diseases through the estrogen receptor” (ALSGEN, LLC, priority 2005, published 2006)

What was measured:
HeLa cells = assay: Bradford total protein assay of HeLa lysates (check for cytotoxic effects); type: cell-based, human; conditions: 72 hours
Experimental: To determine if decrements found in the SOD-1 assay were simply the result of cytotoxic effects of the drug treatment, total protein was determined for each well. While the ELISA incubation was ongoing, 10 μl of the remaining lysate was removed from each well and placed into another empty plate, and BioRad Bradford reagent (100 μl) was added to the protein. After a 15 min incubation at room temperature the plate was shaken gently for 5 seconds and the absorbance was read at 595 nm in a Tecan Sunrise plate reader. Protein concentrations in each well were thus determined by comparison with protein standards that were run on the same plate.
Following 72 hours of incubation with the drugs, the cells were photographed and processed as described in Example 1 (iii). The total protein of the lysates was determined by Bradford assay as described in Example 1 (iv). […] This reduction was dose related and maximal by 3 μM, with an IC50 of 2 μM.

SOD-1 protein = assay: SOD-1 ELISA on lysates of HeLa cells after 72 hours of incubation with drug; type: cell-based, human
Experimental: Briefly, cells were maintained in Dulbecco's Minimal Essential Medium, with high glucose, supplemented with glutamine, 4 mM, certified fetal bovine serum, 10%, and penicillin, streptomycin, and nystatin (all from Invitrogen). Incubation conditions were 37 degrees and 99% relative humidity, with CO2 at 5%. Cultures were passaged when they reached 90% confluence. For pharmacological experiments, cells were plated into sterile tissue culture treated 96 well plates at a density of 3,500 cells/well in 150 μl medium. After plating and 6 hours for attachment, drugs were added to the medium in a concentration of 10 μM. Following 72 hours of incubation with the drugs, the cells were photographed at 100× using an inverted microscope and digital camera, so that cytotoxicity could be evaluated. After photodocumentation, the medium was removed and the cells were washed once with phosphate buffered saline, and then 50 μl molecular biology grade water containing a protease inhibitor cocktail was added. After 10 min incubation, the plates were placed in −80 degrees to induce complete lysis. Plates were then thawed and 25 μl was transferred from each well into a maxsorp ELISA plate coated with anti-human SOD-1 antibody, which contained 75 μl phosphate buffered saline. A second antibody pair (a polyclonal anti-SOD-1/HRP conjugated goat anti-rabbit) was then added to the well, and incubation was conducted for 1 hour at room temperature. At the conclusion of the incubation, the plate was washed three times (wash buffer from KPL Inc.) and Sure Blue Reserve HRP Substrate was added. […] The plate was then shaken gently for 5 seconds and the absorbance at 450 mn read on a Tecan Plate reader. Absorbance from each sample were compared to standard curve of purified recombinant human SOD-1 assayed on the same ELISA plate, and SOD-1 immunoreactivity (ng/ml) was estimated by comparison with the standard curve. […] The total protein of the lysates was determined by Bradford assay as described in Example 1 (iv). […]

SOD-1 mRNA = SOD-1 mRNA by RT-PCR in blood of the SOD-93A murine model for ALS; type: in vivo; conditions: SOD-93A mice, ip 1 or 10 mg/kg for 14 days, lymphocyte/blood samples, p<0.05, FIG. 2
Experimental: The effects of the estrogen receptor modulating agent (e.g., Estradiol), and analogs thereof described in Examples 2 were tested in vivo in the SOD-93A murine model for ALS, and a reduction in SOD-1 levels was measured. The inhibition of RNA expression was monitored by isolated blood samples from a mouse pre- and post introduction of the compound (estradiol benzoate) using standard RT-PCR techniques. The expression of the SOD-1 protein was determined using Western blot techniques with an anti-SOD-1 antibody from Sigma. […] The results are shown as a % of internal control, 18S rRNA.

C[C@]12CC[C@@H]3c4ccc(O)cc4CC[C@H]3[C@@H]1CC[C@@H]2O [Estradiol]
total protein levels (HeLa cells): unaffected
concentration at which reduction of SOD-1 protein is maximal (SOD-1 protein; 72 hours, dose related): ≤ 3 µM
IC50 (SOD-1 protein; drug added to culture medium 72 hours before harvest, read-out: IC50 of reduction of SOD-1 protein levels): 2000 nM

C[C@]12CC[C@@H]3c4ccc(OC(=O)c5ccccc5)cc4CC[C@H]3[C@@H]1CC[C@@H]2O [estradiol benzoate]
SOD-1 mRNA (% of internal control, 18S rRNA) (SOD-1 mRNA): decreased

CCCCC(=O)O[C@H]1CC[C@H]2[C@@H]3CCc4cc(O)ccc4[C@H]3CC[C@]12C [estradiol valerate]
levels of SOD-1 protein (SOD-1 protein; 72 hours, FIG. 1): reduction
